Results on eight compounds are retold here after BindingDB's records for patent US20240140962 (Medshine Discovery, 2024).

SMILES strings stand for the structures.

The assay concerns the target Serine/threonine-protein kinase PLK1 (Homo sapiens, UniProt P53350). The assay is described as follows: Evaluation of PLK1 Kinase Activity In Vitro. The method, then:
The 33P isotope-labeled kinase activity assay (Reaction Biology Corp) was used to determine the IC50 value to evaluate the inhibitory ability of the test compound to human PLK1 protein kinase.Buffer conditions: 20 mM HEPES (pH 7.5), 10 mM MgCl2, 1 mM EGTA, 0.01% Brij35, 0.02 mg/ml BSA, 0.1 mM Na3VO4, 2 mM DTT, 1% DMSOTest steps: At room temperature, the compounds to be tested were dissolved in DMSO to prepare a 10 mM solution for use. The substrate Casein was dissolved in a freshly prepared buffer (with a final concentration of 20 μM), and the tested PLK1 kinase (with a final concentration of 12 nM) was added thereto and mixed well. The acoustic wave pipetting system Echo 550 was used to add the mother solution of the test compound dissolved in DMSO to the above mixed reaction mixture according to the set final concentration gradient (the highest final concentration was 1 μM, 3-fold dilution, 10 gradients). After incubation at room temperature for 20 minutes, 33P-ATP (30 μM) was added, and after incubation at room temperature for 120 minutes, the reaction mixture was spotted on P81 ion exchange filter paper (Whatman #3698-915). After the filter paper was repeatedly washed with 0.75% phosphoric acid solution, the radioactivity of the phosphorylated substrate remaining on the filter paper was measured.

Sequence of Serine/threonine-protein kinase PLK1 (P53350 whole entry): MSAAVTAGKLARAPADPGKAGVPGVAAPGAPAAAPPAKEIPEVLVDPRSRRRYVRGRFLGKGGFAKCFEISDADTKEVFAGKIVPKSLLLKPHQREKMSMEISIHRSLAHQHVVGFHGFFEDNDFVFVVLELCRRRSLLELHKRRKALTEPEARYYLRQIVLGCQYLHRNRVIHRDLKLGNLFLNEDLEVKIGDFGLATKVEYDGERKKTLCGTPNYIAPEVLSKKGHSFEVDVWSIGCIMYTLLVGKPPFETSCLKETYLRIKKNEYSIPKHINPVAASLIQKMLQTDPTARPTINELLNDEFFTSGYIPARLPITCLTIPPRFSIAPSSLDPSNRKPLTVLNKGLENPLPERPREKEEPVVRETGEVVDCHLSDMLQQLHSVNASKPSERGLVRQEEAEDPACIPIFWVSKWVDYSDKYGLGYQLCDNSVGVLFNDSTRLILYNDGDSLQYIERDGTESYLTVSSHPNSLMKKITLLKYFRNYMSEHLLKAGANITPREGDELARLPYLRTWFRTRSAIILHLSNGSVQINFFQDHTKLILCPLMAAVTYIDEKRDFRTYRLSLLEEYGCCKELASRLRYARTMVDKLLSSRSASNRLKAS

A word on the IC50: it is the concentration needed to halve the response being measured. Take `CSc1sc(C(N)=O)c2c1-c1nc(Nc3cc(N4CCNCC4)ccc3OC(F)(F)F)ncc1CC2` [US20240140962, Compound 7]: half-maximal inhibition (IC50) required 3 nM.

As for `CN1CCN(c2ccc(OC(F)(F)F)c(Nc3ncc4c(n3)-c3c(C5CC5)sc(C(N)=O)c3CC4)c2)CC1` [US20240140962, Compound 16], half-maximal inhibition (IC50) was put at 5.3 nM.

Turning to `COc1nnc(N2CCN(C)CC2)cc1Nc1ncc2c(n1)-c1c(SC)sc(C(N)=O)c1CC2` [US20240140962, Compound 17], the IC50 stood at 5.9 nM. The IC50 values of the last two compounds are within 1.5-fold of each other.

`CCOc1sc(C(N)=O)c2c1-c1nc(Nc3cc(N4CCN(C)CC4)ccc3OC(F)(F)F)ncc1CC2` [US20240140962, Compound 2] returned an IC50 of 4.2 nM.

Turning to `CSc1sc(C(N)=O)c2c1-c1nc(Nc3cc(N4CCN(C)CC4)ccc3OC(F)(F)F)ncc1CC2` [US20240140962, Compound 1], the IC50 amounted to 4.4 nM.

Consider `CSc1sc(C(N)=O)c2c1-c1nc(Nc3cc(N4CCN(CCO)CC4)ccc3OC(F)(F)F)ncc1CC2` [US20240140962, Compound 8], for which the IC50 was determined as 1.7 nM.

Regarding `CN1CCN(c2ccc(OC(F)(F)F)c(Nc3ncc4c(n3)-c3c(-c5ccco5)sc(C(N)=O)c3CC4)c2)CC1` [US20240140962, Compound 20], the IC50 amounted to 2.8 nM.

`CN1CCN(c2ccc(OC(F)(F)F)c(Nc3ncc4c(n3)-c3csc(C(N)=O)c3CC4)c2)CC1` [US20240140962, Compound 12] gave an IC50 of 4 nM. The IC50 values of the last two compounds are within 1.5-fold of each other.
